Source: ChEMBL document CHEMBL1201862, “PubChem BioAssay data set” (2004)
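Briefly, cells in 96-well plates were exposed to five compound concentrations for 48 h, and endpoints were estimated by linear interpolation. Abbreviation: GI50, concentration required for 50% inhibition of growth.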 Activity calls are given as the source filed them. No stated cut-off is given here; in the data, active = GI50 up to about 1.1 µM and inactive = higher.

Experiments:
Test in all cases: NCI anticancer screen, dose series, 48 h
[1] = test system: SN12C
[2] = test system: HOP-92
[3] = test system: M14
[4] = test system: HT-29
[5] = test system: NCI-H23
[6] = test system: SF-295
[7] = test system: SNB-19
[8] = test system: MDA-N
[9] = test system: UACC-257
[10] = test system: HL-60
[11] = test system: BT-549
[12] = test system: SF-268
[13] = test system: LOX IMVI
[14] = test system: MDA-MB-231
[15] = test system: SF-539
[16] = test system: SNB-75
[17] = test system: EKVX
[18] = test system: Malme-3M
[19] = test system: MDA-MB-435

Compound | GI50 [1] | GI50 [2] | GI50 [3] | GI50 [4] | GI50 [5] | GI50 [6] | GI50 [7] | GI50 [8] | GI50 [9] | GI50 [10] | GI50 [11] | GI50 [12] | GI50 [13] | GI50 [14] | GI50 [15] | GI50 [16] | GI50 [17] | GI50 [18] | GI50 [19]
COc1cc(C2c3cc4c(cc3OC(N3CCCC3)C2C)OCO4)cc(OC)c1O (stereo unspecified) | 23.4 µM (inactive) | 19.4 µM (inactive) | 16 µM (inactive) | 17.4 µM (inactive) | 23.4 µM (inactive) | 3.71 µM (inactive) | 13.2 µM (inactive) | 2.31 µM (inactive) | 35.6 µM (inactive) | 4.58 µM (inactive) | 13.3 µM (inactive) | 22.9 µM (inactive) | 23 µM (inactive) | 19.4 µM (inactive) | 14.9 µM (inactive) | 4.26 µM (inactive) | 32.5 µM (inactive) | 8.09 µM (inactive) | 2.48 µM (inactive)
CC1=NN(C(=O)CC(=O)Nc2ccc(Cl)cc2)C(=O)C1/N=N\c1ccc(S(=O)(=O)c2ccc(/N=N/C3C(=O)N(C(=O)CC(=O)Nc4ccc(Cl)cc4)N=C3C)cc2)cc1 (stereo unspecified) | > 100 µM (inactive) | > 100 µM (inactive) | 65.2 µM (inactive) | > 100 µM (inactive) | > 100 µM (inactive) | > 100 µM (inactive) | 61.5 µM (inactive) | > 100 µM (inactive) | > 100 µM (inactive) | > 100 µM (inactive) | > 100 µM (inactive) | > 100 µM (inactive) | > 100 µM (inactive) | 51.9 µM (inactive) | > 100 µM (inactive) | 39.5 µM (inactive) | > 100 µM (inactive) | > 100 µM (inactive) | > 100 µM (inactive)
c1ccc2c(c1)N[C@@H]1c3[nH]c4ccccc4c3CC[C@H]21 | 15.2 µM (inactive) | 14.4 µM (inactive) | 13.5 µM (inactive) | 15.6 µM (inactive) | 15.8 µM (inactive) | 13.4 µM (inactive) | 17.6 µM (inactive) | 19.6 µM (inactive) | 26.9 µM (inactive) | 16.1 µM (inactive) | 18.8 µM (inactive) | 22.4 µM (inactive) | 16 µM (inactive) | 15.5 µM (inactive) | 16.6 µM (inactive) | 1.3 µM (inactive) | 13.5 µM (inactive) | 5.13 µM (inactive) | 17.3 µM (inactive)
COc1ccc2c(c1)/C(=C\c1c(Cl)nc3n1CCS3)C(=O)N2 | 10.8 µM (inactive) | 46.5 µM (inactive) | 7.5 µM (inactive) | 3.25 µM (inactive) | 11.2 µM (inactive) | 3.72 µM (inactive) | 14.6 µM (inactive) | 1.48 µM (inactive) | 5.48 µM (inactive) | 3.58 µM (inactive) | 6.76 µM (inactive) | 13.8 µM (inactive) | 9.71 µM (inactive) | 5.14 µM (inactive) | 4.65 µM (inactive) | 10.8 µM (inactive) | 18.3 µM (inactive) | 11.2 µM (inactive) | 1.29 µM (inactive)
CC1(C)Cc2nc3c(cc2C(=O)C1/C=N/C(C#N)=C(\N)C#N)C(=O)C(/C=N/C(C#N)=C(\N)C#N)C(C)(C)C3 (stereo unspecified) | 2.06 µM (inactive) | 1.7 µM (inactive) | 1.67 µM (inactive) | 2.54 µM (inactive) | 2.71 µM (inactive) | 2.54 µM (inactive) | 4.68 µM (inactive) | 2.41 µM (inactive) | 2.51 µM (inactive) | 2.04 µM (inactive) | 2.19 µM (inactive) | 1.64 µM (inactive) | 2.09 µM (inactive) | 2.82 µM (inactive) | 1.18 µM (inactive) | 1.66 µM (inactive) | 2.03 µM (inactive) | 1.52 µM (inactive) | 2.08 µM (inactive)
O=C1CSC(c2ccccc2)N1c1nc2cc3sc(N4C(=O)CSC4c4ccccc4)nc3cc2s1 (stereo unspecified) | 32.4 µM (inactive) | > 100 µM (inactive) | > 87.3 µM (inactive) | 19.1 µM (inactive) | 15 µM (inactive) | > 100 µM (inactive) | 78.3 µM (inactive) | > 64.4 µM (inactive) | 85.1 µM (inactive) | > 63.7 µM (inactive) | 37.6 µM (inactive) | > 87.3 µM (inactive) | 25.4 µM (inactive) | 68.7 µM (inactive) | 3.03 µM (inactive) | 38 µM (inactive) | 22.1 µM (inactive) | > 87.7 µM (inactive) | 55.6 µM (inactive)
COc1ccc(C(Nc2ncccn2)c2cc3c(cc2O)OCO3)cc1 (stereo unspecified) | 17.4 µM (inactive) | 37.2 µM (inactive) | 20.6 µM (inactive) | 24.8 µM (inactive) | 12.7 µM (inactive) | 65.8 µM (inactive) | 17.3 µM (inactive) | 18.3 µM (inactive) | 18.9 µM (inactive) | 16.4 µM (inactive) | 23 µM (inactive) | 17.3 µM (inactive) | 16.9 µM (inactive) | 21.3 µM (inactive) | 15.2 µM (inactive) | 10.2 µM (inactive) | 22.9 µM (inactive) | 26.1 µM (inactive) | 19.9 µM (inactive)
CC(C#N)(c1ccccc1)N(CCc1ccccc1)C(=O)Oc1ccccc1 (stereo unspecified) | > 100 µM (inactive) | 10.9 µM (inactive) | > 100 µM (inactive) | > 100 µM (inactive) | > 100 µM (inactive) | > 100 µM (inactive) | 44.2 µM (inactive) | > 100 µM (inactive) | > 100 µM (inactive) | > 100 µM (inactive) | > 100 µM (inactive) | > 100 µM (inactive) | > 100 µM (inactive) | > 100 µM (inactive) | > 100 µM (inactive) | 25.9 µM (inactive) | > 100 µM (inactive) | > 100 µM (inactive) | > 100 µM (inactive)
O=C(O)C1CSC2(CCCN(Cc3ccccc3)C2)N1 (stereo unspecified) | > 100 µM (inactive) | > 100 µM (inactive) | > 100 µM (inactive) | > 100 µM (inactive) | > 100 µM (inactive) | > 100 µM (inactive) | > 100 µM (inactive) | > 100 µM (inactive) | > 100 µM (inactive) | > 100 µM (inactive) | > 100 µM (inactive) | > 100 µM (inactive) | > 100 µM (inactive) | > 100 µM (inactive) | > 100 µM (inactive) | > 100 µM (inactive) | > 100 µM (inactive) | > 100 µM (inactive) | > 76.7 µM (inactive)
COC1CC(O[C@H]2CC[C@@]3(C)[C@@H](CC[C@]4(O)[C@@H]3CC[C@]3(C)[C@@H](C(C)=O)[C@H](OC(=O)CC(C)C)[C@@H](OC(=O)c5ccccc5)[C@@]34O)C2)OC(C)C1OC1CC(OC)C(OC2OC(C)C(O)C(OC)C2O)C(C)O1 (stereo partly specified) | > 25 µM (inactive) | 6.55 µM (inactive) | 16.1 µM (inactive) | 11.9 µM (inactive) | > 25 µM (inactive) | 16.9 µM (inactive) | > 25 µM (inactive) | > 25 µM (inactive) | > 25 µM (inactive) | 7.19 µM (inactive) | > 25 µM (inactive) | > 25 µM (inactive) | 15.9 µM (inactive) | 18.4 µM (inactive) | > 25 µM (inactive) | 11.9 µM (inactive) | 9.68 µM (inactive) | 18.5 µM (inactive) | 12.2 µM (inactive)
CCOC(=O)CO/N=C1/C(=C2/C(=O)Nc3ccccc32)Nc2ccccc21 | 31.3 µM (inactive) | 16.9 µM (inactive) | > 100 µM (inactive) | > 100 µM (inactive) | 17 µM (inactive) | 33.3 µM (inactive) | 10 µM (inactive) | > 100 µM (inactive) | > 100 µM (inactive) | > 100 µM (inactive) | 78.3 µM (inactive) | 27 µM (inactive) | > 100 µM (inactive) | 7.4 µM (inactive) | 41.1 µM (inactive) | 3.39 µM (inactive) | 13.4 µM (inactive) | > 100 µM (inactive) | > 100 µM (inactive)
COC(=O)c1ccc(/C=C/c2cc(O)ccc2O)cc1 | 2.38 µM (inactive) | 2.44 µM (inactive) | 13.1 µM (inactive) | 30.3 µM (inactive) | 4.39 µM (inactive) | 13.1 µM (inactive) | 33.3 µM (inactive) | 3.44 µM (inactive) | 6.27 µM (inactive) | 0.269 µM (active) | 1.11 µM (active) | 2.15 µM (inactive) | 2.24 µM (inactive) | 2.74 µM (inactive) | 1.6 µM (inactive) | 15 µM (inactive) | 2.37 µM (inactive) | 0.923 µM (active) | 3.21 µM (inactive)
Cc1ccccc1/N=C/N(C)C | 66.5 µM (inactive) | 48.3 µM (inactive) | 99.3 µM (inactive) | 34.3 µM (inactive) | 19.2 µM (inactive) | 39.5 µM (inactive) | 56.8 µM (inactive) | 37.5 µM (inactive) | 22 µM (inactive) | 14.1 µM (inactive) | 85.7 µM (inactive) | 57.4 µM (inactive) | 23.8 µM (inactive) | 39 µM (inactive) | 61.8 µM (inactive) | 44.9 µM (inactive) | 35.3 µM (inactive) | 43.9 µM (inactive) | 42.1 µM (inactive)
COc1cccc(-c2cc(O)c3cc(Cl)cnc3n2)c1 | 0.143 µM (active) | 0.469 µM (active) | 0.0443 µM (active) | 0.0908 µM (active) | 0.254 µM (active) | 0.0687 µM (active) | 0.122 µM (active) | 0.0144 µM (active) | 6.92 µM (inactive) | 0.0211 µM (active) | 2.17 µM (inactive) | 0.165 µM (active) | 0.0687 µM (active) | 0.338 µM (active) | 0.0348 µM (active) | 33.5 µM (inactive) | > 16.6 µM (inactive) | 2.25 µM (inactive) | 0.0155 µM (active)
